Assay results as given in patent US20240076609A1, “COMPOSITIONS AND METHODS FOR CULTURING AND EXPANDING CELLS” (LIFE TECHNOLOGIES CORPORATION, priority 2017, published 2024).
Several values for one entry are separate records, joined by “and”; a condition that tells them apart may be missing. Identical values can stand only once.

Assays:
Pan CD3+ T cells = experiment: CD8+/CD4+ phenotype by flow cytometry after 10 days with 2-DG; assay type: cell-based, human; conditions: for CD8+ T cell population (frequency): day 10
Method: (§1) Phenotype: Primary human T cells were expanded for 10 days with and without 2-DG and 5% human AB serum. DYNABEADS® were removed from 2×10^6 cells by magnetic separation. Surface staining was performed with antibodies against CD3 (Invitrogen, Cat. No. CD0329), CD4 (Molecular Probes, Cat. No. A15858), CD8 (Invitrogen, Cat. No. MHCD0828). Flow cytometric analysis was performed on a Gallios flow cytometer and Kaluza software (Beckman Coulter, Indianapolis IN). Phenotype: Primary human T cells were expanded for 10 days with and without 2-DG and 5% human AB serum. DYNABEADS® were removed from 2×10^6 cells by magnetic separation. Surface staining was performed with antibodies against CD3 (Invitrogen, Cat. No. CD0329), CD4 (Molecular Probes, Cat. No. A15858), CD8 (Invitrogen, Cat. No. MHCD0828). Flow cytometric analysis was performed on a Gallios flow cytometer and Kaluza software (Beckman Coulter, Indianapolis IN).

Naïve T cells = experiment: CD8+/CD4+ phenotype after 10 days with 2-DG in naïve T cells; assay type: cell-based, human; conditions: 4 mM 2-DG
Method: as §1, with “For some studies, CD8+ and CD4+ T cells were isolated from PBMCs by negative selection using Untouched Human CD8+ and CD4+ T Cells Kits. Naïve and non-naïve T cells were isolated from enriched T cells by positive selection using CD45RA nanobeads (Miltenyi). Phenotype: Primary” for “Phenotype: Primary”, “Indianapolis IN). For some studies, CD8+ and CD4+ T cells were isolated from PBMCs by negative selection using Untouched Human CD8+ and CD4+ T Cells Kits. Naïve and non-naïve T cells were isolated from enriched T cells by positive selection using CD45RA nanobeads (Miltenyi). Phenotype: Primary” for “Indianapolis IN). Phenotype: Primary”

[1] = 0.25 mM 2-DG, Day 10 of culture
[2] = 0.25 mM 2-DG, Day 10, single donors
[3] = 0.5 mM 2-DG, Day 10, single donors

O=CC[C@@H](O)[C@H](O)[C@H](O)CO [2-DG, 2-Deoxy-D-Glucose]
% CD4+ (Pan CD3+ T cells; [1]): 39.21% and 32.39% and 22.68%
% CD8+ (Pan CD3+ T cells; [1]): 53.46% and 63.2% and 70.32%
% Ratios (CD8+/CD4+) (Avg) (Pan CD3+ T cells; 0.25 mM 2-DG, Day 10 of culture, average): 2.1
Fold Increase compared to Baseline (Pan CD3+ T cells; 0.25 mM 2-DG, Day 10 vs Day 0 CD8+/CD4+ ratio): 3.02 and 2.49 and 3.99
% Ratios (CD8+/CD4+) (Avg) (Pan CD3+ T cells; 0.25 mM 2-DG, Day 10): 2.1
% CD4+ (Pan CD3+ T cells; [2]): 39.21% and 32.39% and 22.68%
% CD8+ (Pan CD3+ T cells; [2]): 53.46% and 63.2% and 70.32%
% Ratios (CD8+/CD4+) (Pan CD3+ T cells; [2]): 1.36 and 1.95 and 3.10
Fold Increase (Avg) (Pan CD3+ T cells; 0.25 mM 2-DG, Day 10 vs Day 0): 3.2
Fold Increase in CD8+ to CD4+ ratio (Pan CD3+ T cells; 0.25 mM 2-DG, Day 10 vs Day 0, single donors): 3.02 and 2.49 and 3.99
CD8+ T cell population (frequency) (Pan CD3+ T cells; 0.25 mM and 0.5 mM 2-DG, single donor): 48%
% CD4+ (Pan CD3+ T cells; 0.5 mM 2-DG, Day 10 of culture): 37.08% and 29.85% and 23.85%
% CD8+ (Pan CD3+ T cells; 0.5 mM 2-DG, Day 10 of culture): 55.04% and 66.57% and 68.64%
% Ratios (CD8+/CD4+) (Pan CD3+ T cells; 0.5 mM 2-DG, Day 10 of culture): 1.48 and 2.23 and 2.88
% Ratios (CD8+/CD4+) (Avg) (Pan CD3+ T cells; 0.5 mM 2-DG, Day 10 of culture, average): 2.2
Fold Increase compared to Baseline (Pan CD3+ T cells; 0.5 mM 2-DG, Day 10 vs Day 0 CD8+/CD4+ ratio): 3.29 and 2.85 and 3.7
% Ratios (CD8+/CD4+) (Avg) (Pan CD3+ T cells; 0.5 mM 2-DG, Day 10): 2.2
% CD4+ (Pan CD3+ T cells; [3]): 37.08% and 29.85% and 23.85%
% CD8+ (Pan CD3+ T cells; [3]): 55.04% and 66.57% and 68.64%
% Ratios (CD8+/CD4+) (Pan CD3+ T cells; [3]): 1.48 and 2.23 and 2.88
Fold Increase (Avg) (Pan CD3+ T cells; 0.5 mM 2-DG, Day 10 vs Day 0): 3.6
Fold Increase in CD8+ to CD4+ ratio (Pan CD3+ T cells; 0.5 mM 2-DG, Day 10 vs Day 0, single donors): 3.29 and 2.85 and 3.7
% CD4+ (Pan CD3+ T cells; 1 mM 2-DG, Day 10, Table 26): 50%
% CD8+ (Pan CD3+ T cells; 1 mM 2-DG, Day 10, Table 26): 42%
% Ratios (CD8+/CD4+) (Pan CD3+ T cells; 1 mM 2-DG, Day 10, Table 26): 0.85
Fold Increase compared to Baseline (Pan CD3+ T cells; 1 mM 2-DG, Day 10 vs Day 0, Table 26): 2.18
% CD4+ (Pan CD3+ T cells; 2 mM 2-DG, Day 10, Table 26): 42%
% CD8+ (Pan CD3+ T cells; 2 mM 2-DG, Day 10, Table 26): 50%
% Ratios (CD8+/CD4+) (Pan CD3+ T cells; 2 mM 2-DG, Day 10, Table 26): 1.18
Fold Increase compared to Baseline (Pan CD3+ T cells; 2 mM 2-DG, Day 10 vs Day 0, Table 26): 3.01
Fold Increase in CD8+ to CD4+ ratio (Pan CD3+ T cells; 4 mM 2-DG, 10 days): 4.1 fold
% CD4+ (Pan CD3+ T cells; 4 mM 2-DG, Day 10, Table 26): 23%
% CD8+ (Pan CD3+ T cells; 4 mM 2-DG, Day 10, Table 26): 63%
% Ratios (CD8+/CD4+) (Pan CD3+ T cells; 4 mM 2-DG, Day 10, Table 26): 2.80
Fold Increase compared to Baseline (Pan CD3+ T cells; 4 mM 2-DG, Day 10 vs Day 0, Table 26): 7.15
CD8+ T cell population (frequency) (Pan CD3+ T cells; 4 mM 2-DG): 63%
% CD4+ (Avg) (Naïve T cells; Day 10): 59.69%
% CD8+ (Avg) (Naïve T cells; Day 10): 36.66%
% Ratios (CD8+/CD4+) (Naïve T cells; Day 10): 2.07
% CD4+ (Naïve T cells; Day 10, replicates): 25.82% and 25.23%
% CD8+ (Naïve T cells; Day 10, replicates): 52.71% and 53.26%
Fold Increase compared to Baseline (Naïve T cells; Day 10 vs Day 0): 3.38
